How the values were obtained:
[1] = tested on: alcohol-dependent participants; conditions: meta-analysis, 95% confidence interval 1.36-2.84; cited from earlier work
AUD patients [2] = experiment: Double-blind randomized trial of psilocybin-assisted treatment of AUD: drinking outcomes by timeline followback; type: in vivo, human; conditions: for % of Heavy drinking days (PHDD), mean: 32-week double-blind follow-up (weeks 5-36) after first dose, oral psilocybin 25 mg/70 kg then 25-40 mg/70 kg or diphenhydramine 50 mg then 50-100 mg at weeks 4 and 8, with psychotherapy
Method: Design: In this double-blind trial, participants were offered 12 weeks of manualized psychotherapy and were randomly assigned to receive psilocybin vs. diphenhydramine during two day-long medication sessions at week 4 and 8. Outcomes were assessed over the 32-week double-blind period following the first dose of study medication.
Interventions: Study medications were psilocybin 25 mg/70 kg vs. diphenhydramine 50 mg (first session) and psilocybin 25-40 mg/70 kg vs. diphenhydramine 50-100 mg (second session). Psychotherapy included motivational enhancement therapy and cognitive-behavioral therapy.
Qualifying participants were assessed at screening, baseline (week 0), and weeks 4, 5, 8, 9, 12, 24, and 36. They were randomly assigned in a 1:1 ratio to receive either psilocybin or diphenhydramine, administered in two eight-hour sessions at weeks 4 and 8. All participants who completed the double-blind observation period (weeks 5-36) and still met safety criteria were offered an open-label psilocybin session at week 38, including four additional psychotherapy sessions and assessment for an additional 18 weeks. Participants received up to a total of $560 for completing assessments in the course of the trial, but were not reimbursed for attending the therapy and medication sessions.
All participants were offered a total of 12 psychotherapy sessions from a team of two therapists including a licensed psychiatrist: 4 before the first medication session, 4 between the first and second medication sessions, and 4 in the month following the second medication session. The psychotherapy, described in detail in a separate publication,^41 included motivational interviewing and cognitive behavioral therapy for AUD as well as material designed to help the participants to manage and make use of the psychoactive effects of the study medication.
Study medication was taken orally in a single opaque capsule of unvarying appearance and weight. Psilocybin doses were weight-based to control for participant body weight, which ranged from 49.0 to 116.1 (mean=78.3, SD=15.6) kg. Doses for the first session were psilocybin 25 mg/70 kg or diphenhydramine 50 mg. Participants received an increased dose in the second session if there were no dose-limiting adverse events and they agreed to the increase. The increased dose of psilocybin was 30 mg/70 kg if the participant's total score on the Pahnke-Richards Mystical Experience Questionnaire (MEQ)^42 was ≥0.6 in the first session (indicating a robust subjective response to the 25 mg/70 kg dose), or 40 mg/70 kg if the MEQ total score in the first session was <0.6. The increased dose of diphenhydramine was 100 mg, regardless of subjective response.
Study medication was administered at approximately 9 AM, after which participants were required to stay in the session room with the therapists for at least 8 hours (except for bathroom breaks). During the session, participants were encouraged to lie on a couch wearing eyeshades and headphones providing a standardized playlist of music. Medications were available in the session room to treat hypertension, severe anxiety, or psychotic symptoms.
The pre-specified primary drinking outcome was the percentage of heavy drinking days (PH DD) during […], assessed at weeks 8, 12, 24, and 36 using the timeline followback, a reliable and valid calendar-based method which is the gold standard outcome for AUD clinical trials.^43-47 Secondary outcomes included percent drinking days (PDD), average drinks per day (DPD), and dichotomous outcomes: abstinence, lack of heavy drinking days, and reduction in World Health Organization risk level^48 by one, two, or three levels. Hair or fingernail samples were collected at week 24 and assayed for ethylglucuronide (EtG) concentration to confirm self-reported abstinence. The Short Index of Problems (SIP-2R)^49 was used to assess drinking-related problems at baseline and weeks 12, 24, and 36. […]

AUD patients [3] = experiment: Subjective effects of study medication, Mystical Experience Questionnaire (MEQ); type: in vivo, human
Method: Subjective effects of psilocybin vs. diphenhydramine were assessed using the States of Consciousness Questionnaire,^42 containing the 43-item Mystical Experience Questionnaire (MEQ), completed immediately after each medication session.
MEQ scores for the first and second medication sessions were computed and contrasted by group (psilocybin vs. diphenhydramine) using t-tests for independent samples.

AUD patients [4] = experiment: Safety: blood pressure, heart rate and adverse events in the trial; type: in vivo, human
Method: Blood pressure and heart rate were assessed at 30- to 60-minute intervals during the first 6 hours of each medication session. Adverse events were solicited at each post-screening assessment.
Blood pressure and heart rate treatment contrasts were based on MMRM with fixed, categorical effects of treatment and assessment, a treatment-by-assessment interaction, and a fixed covariate (value of each outcome prior to drug administration). All adverse events occurring after informed consent were MedDRA-coded and tabulated, and prevalence within treatment groups (proportion of participants affected) was compared using Fisher's exact tests.

[5] = 32-week double-blind follow-up (weeks 5-36)
[6] = 32 weeks following the first administration of study medication
[7] = treatment-emergent, within 48 hours of study drug administration

CCN(CC)C(=O)[C@@H]1C=C2c3cccc4[nH]cc(c34)C[C@H]2N(C)C1 [lysergic acid diethylamide (LSD), lysergic acid diethylamide]
Odds ratio of remission during follow-up vs comparator conditions [1]: 1.96

CN(C)CCOC(c1ccccc1)c1ccccc1 [Diphenhydramine, diphenhydramine]
% of Drinking days (PDD), mean (AUD patients [2]; [5]): 42.83% | Drinks per day (DPD), mean (AUD patients [2]; [5]): 2.26 Drinks per day | % of Heavy drinking days (PHDD), mean (AUD patients [2]): 23.57% | % of Heavy drinking days (PHDD), mean (AUD patients [2]; listed as diphenhydramine): 23.6% | Abstinence, % of participants (AUD patients [2]; Weeks 5-36): (8.9) % | Abstinence, No. of participants (AUD patients [2]; Weeks 5-36): 4 | No heavy drinking, % of participants (AUD patients [2]; Weeks 5-36): (11.1) % | No heavy drinking, No. of participants (AUD patients [2]; Weeks 5-36): 5 | WHO risk level Decrease 1, % of participants (AUD patients [2]; Weeks 5-36): (71.1) % | WHO risk level Decrease 2, % of participants (AUD patients [2]; Weeks 5-36): (40.0) % | WHO risk level Decrease 2, No. of participants (AUD patients [2]; Weeks 5-36): 18 | WHO risk level Decrease 3, % of participants (AUD patients [2]; Weeks 5-36): (13.3) % | WHO risk level Decrease 3, No. of participants (AUD patients [2]; Weeks 5-36): 6 | WHO risk level Decrease 1, No. of participants (AUD patients [2]; Weeks 5-36, relative to 12 weeks prior to screening): 32 | Abstinence, % of participants (AUD patients [2]; Weeks 33-36): (24.4) % | Abstinence, No. of participants (AUD patients [2]; Weeks 33-36): 11 | No heavy drinking, % of participants (AUD patients [2]; Weeks 33-36): (40.0) % | No heavy drinking, No. of participants (AUD patients [2]; Weeks 33-36): 18 | WHO risk level Decrease 1, % of participants (AUD patients [2]; Weeks 33-36): (64.4) % | WHO risk level Decrease 1, No. of participants (AUD patients [2]; Weeks 33-36): 29 | WHO risk level Decrease 2, % of participants (AUD patients [2]; Weeks 33-36): (40.0) % | WHO risk level Decrease 2, No. of participants (AUD patients [2]; Weeks 33-36): 18 | WHO risk level Decrease 3, % of participants (AUD patients [2]; Weeks 33-36): (17.8) % | WHO risk level Decrease 3, No. of participants (AUD patients [2]; Weeks 33-36): 8 | Mean MEQ score (AUD patients [3]; Session 1, psilocybin 25 mg/70 kg or diphenhydramine 50 mg): 0.10 (SD=0.13) | Mean MEQ score (AUD patients [3]; Session 2, psilocybin 25-40 mg/70 kg or diphenhydramine 50-100 mg): 0.11 (SD=0.16) | Adverse events reported, number (AUD patients [4]; [6]): 85 | Serious adverse events (AUD patients [4]; [6]): Three | Headaches, participants affected / treated (AUD patients [4]; [7]): 2/45 | Headaches, percent of participants (AUD patients [4]; [7]): 4.4%

Reference: patent publication US20240000814A1, “TREATING ALCOHOL USE DISORDER USING PSILOCYBIN” (New York University, priority 2022, published 2024)
